Test results from US20110071197A1, “BIS-ARYL COMPOUNDS FOR USE AS MEDICAMENTS” (priority 2008, published 2011).

Target: T1, Recombinant human LTC4 synthase (Homo sapiens, UniProt Q16873)
T1 construct: made in house; host or cells: Pichia pastoris
T1 sequence (Q16873 1-150): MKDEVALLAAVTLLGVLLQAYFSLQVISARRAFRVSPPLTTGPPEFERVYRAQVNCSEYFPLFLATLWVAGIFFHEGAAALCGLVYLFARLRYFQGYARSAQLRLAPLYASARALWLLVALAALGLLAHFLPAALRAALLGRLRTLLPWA
Assay: LTC4 synthase in vitro assay (HTRF detection of LTC4)
Assay type: biochemical
Settings: total concentration of title compound in the assay 10 μM; HTRF method
Protocol: Alternatively HTRF detection of LTC4 can be used:
In the assay, LTC4 synthase catalyses the reaction where the substrate LTA4 is converted to LTC4. Recombinant human LTC4 synthase is expressed in Piccia pastoralis and the purified enzyme is dissolved in 25 mM Tris-buffer pH 7.8 supplemented with 0.1 mM glutathione (GSH) and stored at −80° C. The assay is performed in phosphate buffered saline (PBS) pH 7.4 and 5 mM GSH in 384-well plates.
The following is added chronologically to each well: • 1. 48 μl LTC4 synthase in PBS with 5 mM GSH. The total protein concentration in this solution is 0.5 μg/ml. • 2. […] Incubation of the plate at room temperature for 10 minutes. • 4. 1 μl LTA4 (final conc. 2.5 μM). • 5. Incubation of the plate at room temperature for 5 minutes. • 6. 10 μl of the incubation mixture is analysed using homogeneous time resolved fluorescent (HTRF) detection.

| SMILES | % inh. | inhibition at 10 µM |
| --- | --- | --- |
| CC(C)(C)c1ccc(C(=O)Nc2ccc(Oc3ccc(NC(=O)c4ccccc4Cl)c(C(=O)O)c3)cc2)cc1 [Example 8:15, 5-[4-(4-tert-Butylbenzoyl-amino)phenoxy]-2-(2-chloro-benzoylino)benzoic acid] | 98% |  |
| CC(C)(C)c1ccc(C(=O)Nc2ccc(Oc3ccc(NC(=O)c4cccnc4Cl)c(C(=O)O)c3)cc2)cc1 [8:16, 5-[4-(4-tert-Butylbenzoyl-amino)phenoxy]-2-[(2-chloro-pyridine-3-carbonyl)-amino]benzoic acid] |  | 99% |
| O=C(O)c1cc(Nc2ccc(F)c(F)c2)cc(Oc2ccc(NC(=O)c3cccc(Cl)c3)cc2)c1 [18:5, 3-[4-(3-Chloro-benzoylamino)-phenoxy]-5-(3,4-difluoro-phenylamino)-benzoic acid] |  | 100% |
| O=C(Nc1ccc(Oc2ccc(NS(=O)(=O)c3ccc(C(F)(F)F)cc3Cl)cc2)cc1C(=O)O)c1ccc(C(F)(F)F)cc1 [11:2, 5-[4-(2-chloro-4-trifluoromethyl-benzenesulfonylamino)phenoxy]-2-(4-trifluoromethylbenzoyl-amino)benzoic acid] |  | 97% |
| O=C(O)c1cc(Oc2ccc(Nc3ccc(F)c(F)c3)c(C(=O)O)c2)ccc1Nc1ccc(F)c(F)c1 [1:3, 3,3′-oxybis[6-(3,4-difluorophenyl-amino)benzoic acid]] |  | 100% |
| CC(C)(C)c1ccc(C(=O)Nc2ccc(Oc3ccc(NC(=O)c4cc(Cl)cnc4Cl)c(C(=O)O)c3)cc2)cc1 [8:17, 5-[4-(4-tert-Butylbenzoyl-amino)phenoxy]-2-[(2,5-di-chloropyridine-3-carbonyl)-amino]benzoic acid] |  | 98% |
| COc1ccc(S(=O)(=O)N(C)c2ccc(Oc3ccc(NC(=O)c4ccc(Cl)cc4)c(C(=O)O)c3)cc2)cc1 [11:13, 2-(4-chlorobenzoylamino)-5-{4-[(4-methoxybenzenesulfonyl)-methylamino]phenoxy}benzoic acid] |  | 99% |
| O=C(Nc1ccc(Sc2ccc(NC(=O)c3cccc(Cl)c3)c(C(=O)O)c2)cc1C(=O)O)c1cccc(Cl)c1 [13:2, 2-(3-chlorobenzamido)-5-((4-(3-chlorobenzamido)-3-carboxyphenyl)sulfanyl)benzoic acid] |  | 100% |
| O=C(O)c1cc(Oc2ccc(N(c3ccc(C(=O)C4CC4)cc3)c3ccc(C(=O)C4CC4)cc3)cc2)ccc1Nc1ccc(C(=O)C2CC2)cc1 [12:4, 5-{4-[bis-(4-cyclopropane-carbonyl-phenyl)-amino]-phenoxy}-2-(4-cycloprop-anecarbonyl-phenylamino)-benzoic acid] |  | 87% |
| COc1ccc(S(=O)(=O)N(C)c2ccc(Oc3ccc(NC(=O)c4cc(Cl)cnc4Cl)c(C(=O)O)c3)cc2)cc1 [11:21, 2-[(2,5-Dichloropyridine-3-carbonyl)amino]-5-{4-[(4-methoxybenzenesulfonyl)-methylamino]phenoxy}benzoic acid] |  | 96% |
| CCCCc1ccc(S(=O)(=O)N(C)c2ccc(Oc3ccc(NC(=O)c4ccc(OC(C)C)cc4)c(C(=O)O)c3)cc2)cc1 [11:6, 5-{4-[(4-butylbenzene-sulfonyl)-methylamino]phenoxy}-2-(4-isopropoxybenzoylamino)-benzoic acid] |  | 96% |
| COc1ccc(S(=O)(=O)N(C)c2ccc(Oc3ccc(NC(=O)c4cc(Cl)ccc4Cl)c(C(=O)O)c3)cc2)cc1 [11:15, 2-(2,5-Dichloro-benzoylamino)-5-{4-[(4-methoxy-benzenesulfonyl)-methyl-amino]-phenoxy}-benzoic acid] |  | 99% |
| CN(C(=O)c1ccc(C(C)(C)C)cc1)c1ccc(Oc2ccc(NC(=O)c3ccc(Cl)cc3Cl)c(C(=O)O)c2)cc1 [9:3, 5-(4-((N-methyl)-4-tert-butylbenz-amido)phenoxy)-2-(2,4-dichlorobenz-amido)benzoic acid] | 99% |  |
| CCCCc1ccc(C(=O)Nc2cccc(Oc3ccc(NC(=O)c4ccccc4OC)c(C(=O)O)c3)c2)cc1 [10:3, 5-[(3-(4-(1-butyl)benzoylamino)-phenoxy)]-2-(2-methoxybenzoyl-amino)benzoic acid] |  | 95% |
| CC(C)(C)OC(=O)c1cc(Oc2cccc(C(=O)NS(=O)(=O)c3ccc(F)c(F)c3)c2)ccc1Nc1ccc(Cl)cc1 [20:6, 2-(4-Chloro-phenylamino)-5-[3-(3,4-difluoro-benzenesulfonylamino-carbonyl)-phenoxy]-benzoic acid t-butyl ester] |  | 100% |
| CCCCOc1ccc(S(=O)(=O)Nc2ccc(Oc3cccc(NCc4cccc(F)c4F)c3)cc2C(=O)O)cc1 [23:1, 2-(4-Butoxybenzenesulfonylamino)-5-[3-(2,3-difluorobenzylamino)-phenoxy]benzoic acid] |  | 100% |
| CCCCc1ccc(C(=O)Nc2ccc([S+]([O-])c3ccc(NC(=O)c4ccc(CCCC)cc4)c(C(=O)O)c3)cc2C(=O)O)cc1 [15:1, 5-(4-(4-butylbenzamido)-3-carboxyphenylsulfinyl)-2-(4-butylbenzamido)benzoic acid] |  | 99% |
| O=C(Nc1ccc(Oc2ccc([N+](=O)[O-])c(C(=O)O)c2)cc1C(=O)O)c1ccc(C(F)(F)F)cc1 [3:2, 2-nitro-5-[4-(4-trifluoromethyl-benzoylamino)-3-carboxy-phenoxy]benzoic acid] |  | 86% |
| CCCCc1ccc(C(=O)Nc2ccc(Oc3ccc(NC(=O)c4ccc(F)c(Cl)c4)c(C(=O)O)c3)cc2C(=O)O)cc1 [2:7, 5-[3-carboxy-4-(3-chloro-4-fluorobenz-amido)-phenyloxy]-2-(4-butylbenz-amido)benzoic acid] | 100% |  |
| O=C(Nc1ccc(Oc2ccc(NC(=O)c3cccc(Cl)c3)c(C(=O)O)c2)cc1C(=O)O)c1ccc([N+](=O)[O-])cc1 [2:3, 5-[3-carboxy-4-(4-nitrobenzamido)-phenyloxy]-2-(3-chlorobenzamido)benzoic acid] |  | 100% |
| COc1ccc(S(=O)(=O)N(C)c2ccc(Oc3ccc(NC(=O)c4ccc(Cl)cc4OC)c(C(=O)O)c3)cc2)cc1 [11:17, 2-(4-Chloro-2-methoxy-benzoylamino)-5-{4-[(4-methoxy-benzenesulfonyl)-methyl-amino]-phenoxy}-benzoic acid] |  | 97% |
| COc1ccc(S(=O)(=O)N(C)c2ccc(Oc3ccc(NC(=O)c4cccc(Cl)c4)c(C(=O)O)c3)cc2)cc1 [11:14, 2-(3-Chloro-benzoylamino)-5-{4-[(4-methoxy-benzenesulfonyl)-methyl-amino]-phenoxy}-benzoic acid] |  | 100% |
| O=C(Nc1ccc(Sc2ccc(NC(=O)c3ccc(Cl)cc3Cl)c(C(=O)O)c2)cc1)c1ccc(C(F)(F)F)cc1 [Example 35:1, 2-(2,4-Dichlorobenzoylamino)-5-[4-(4-trifluoromethylbenzoylamino)phenyl-sulfanyl]benzoic acid] |  | 99% |
| COc1cc(Cl)ccc1C(=O)Nc1ccc(Oc2ccc(NC(=O)c3ccc(C(C)(C)C)cc3)cc2)cc1C(=O)O [8:19, 5-[4-(4-tert-Butylbenzoyl-amino)phenoxy]-2-(4-chloro-2-methoxybenzoylamino)-benzoic acid] |  | 99% |
| CN(c1cc(Oc2ccc(Nc3ccc(C(=O)C4CC4)cc3)cc2)cc(C(=O)O)c1)c1ccc(F)c(F)c1 [18:3, 3-[4-(4-Cyclopropanecarbonyl-phenylamino)-phenoxy]-5-[(3,4-difluoro-phenyl)-methyl-amino]-benzoic acid] |  | 95% |
